pIC50: −log10 of the molar value. ≈ marks a conversion by molar mass, not a printed value. Where two headings read alike, the source gives them in different places.
Assays:
[1] = test system: Staphylococcus aureus RN 4220; experiment: Antibacterial susceptibility, broth microdilution MIC; assay type: cell-based; settings: RN4220, 24 h
Method: Whole-cell antimicrobial activities were determined using a broth microdilution method described previously. Most of the test strains were grown to mid-log phase in Mueller–Hinton broth and diluted 1,000-fold in the same medium. Cells (10^5/mL) were dispensed at 0.2 mL/well in 96-well microtiter plates. Streptococcus pneumonia and Acinetobacter baumanii were grown in Todd–Hewitt medium and nutrient broth, respectively. […] Cells were treated with 0.05% DMSO as a vehicle control. The MICs were determined in triplicate by serial two-fold dilutions of the test compounds. […] Bacterial growth was determined by measuring the absorption at 650 nm using a microtiter enzyme-linked immunosorbent assay (ELISA) reader (Molecular Devices Corporation, Sunnyvale, CA, USA).

[2] = test system: Acinetobacter baumannii KCTC 2508; experiment: as above; assay type: cell-based; settings: KCTC2508, nutrient broth, 24-h incubation at 37 °C
Method: (§1) Whole-cell antimicrobial activities were determined using a broth microdilution method described previously. Most of the test strains were grown to mid-log phase in Mueller–Hinton broth and diluted 1,000-fold in the same medium. Cells (10^5/mL) were dispensed at 0.2 mL/well in 96-well microtiter plates. Streptococcus pneumonia and Acinetobacter baumanii were grown in Todd–Hewitt medium and nutrient broth, respectively. […]. Cells were treated with 0.05% DMSO as a vehicle control. The MICs were determined in triplicate by serial two-fold dilutions of the test compounds. […] Bacterial growth was determined by measuring the absorption at 650 nm using a microtiter enzyme-linked immunosorbent assay (ELISA) reader (Molecular Devices Corporation, Sunnyvale, CA, USA).

E. coli CCARM 1356 = experiment: as above; assay type: cell-based; settings: Escherichia coli, CCARM1356, 24-h incubation at 37 °C
Method: as §1

E. coli KCTC 1682 = experiment: as above; assay type: cell-based; settings: Escherichia coli
Method: as §1

[3] = test system: Enterococcus faecalis KCTC 5191; experiment: as above; assay type: cell-based; settings: KCTC5191, 24-h incubation at 37 °C
Method: as §1

[4] = test system: Klebsiella pneumoniae KCTC 22057; experiment: as above; assay type: cell-based; settings: KCTC22057; Klebsiella pneumoniae KCTC 22057; 24-h incubation at 37 °C
Method: as §1

MRSA CCARM 3167 = experiment: as above; assay type: cell-based; settings: Staphylococcus aureus, 24-h incubation at 37 °C
Method: as §1

MRSA CCARM 3506 = experiment: as above; assay type: cell-based; settings: Staphylococcus aureus, 24-h incubation at 37 °C
Method: as §1

[5] = test system: Pseudomonas aeruginosa KCTC 2004; experiment: as above; assay type: cell-based; settings: KCTC2004; Pseudomonas aeruginosa KCTC 2004; 24-h incubation at 37 °C
Method: as §1

QRSA CCARM 3505 = experiment: as above; assay type: cell-based; settings: Staphylococcus aureus, CCARM3505; QRSA CCARM 3505; 24-h incubation at 37 °C; read-out: MIC
Method: as §1

QRSA CCARM 3519 = experiment: as above; assay type: cell-based; settings: Staphylococcus aureus, CCARM3519; QRSA CCARM 3519; 24-h incubation at 37 °C; read-out: MIC
Method: as §1

[6] = test system: Streptococcus pneumonia KCTC 5412; experiment: as above; assay type: cell-based; settings: Streptococcus pneumoniae, KCTC5412, Todd–Hewitt medium, 24-h incubation at 37 °C
Method: as §1

E. coli DNA gyrase = target: T1, E. coli DNA gyrase (Escherichia coli, UniProt P0AES4+P0AES6); experiment: DNA gyrase supercoiling assay; assay type: biochemical; settings: relaxed plasmid, 37 °C for 30 min, agarose gel band densities; read-out: IC50, inhibition of the supercoiling activity of E. coli DNA gyrase
T1 construct: purchased TopoGEN TG2001G
Method: The inhibitory activities of coralmycins on the supercoiling activity of DNA gyrase were investigated using a ‘Purified E. coli DNA Gyrase Drug Screening Kit’ (TopoGEN #TG2001G, Buena Vista, CO, USA). […] The reaction was terminated by the addition of 2 μL of 10% (w/v) SDS and 2 μL of 10× DNA gel loading dye (bromophenol blue). Then, 20 μL of chloroform:isoamyl alcohol (24:1 mixture) was added, and the mixture was vortexed and then centrifuged. The samples in the blue phase were run on 1% (w/v) agarose gel and were visualized using ethidium bromide. All reactions were performed in triplicate. To calculate the IC50 values, the band densities were measured using ImageJ (National Institutes of Health, Bethesda, Maryland, MD, USA).

[7] = test system: Gram-negative and Gram-positive bacteria; settings: cited from earlier work
DNA gyrase = settings: read-out: IC50, DNA gyrase-inhibitory activity; cited from earlier work
[8] = test system: Gram-negative pathogens as well as Gram-positive bacteria; parameters: method as in PMID 27598688; settings: compared with 11; cited from earlier work
Gram-negative pathogens = settings: compared with 12; cited from earlier work
[9] = KCTC1682, 24-h incubation at 37 °C, Table 6 and Table S1, read-out: MIC

T1 sequence (P0AES4 whole entry, one chain of several): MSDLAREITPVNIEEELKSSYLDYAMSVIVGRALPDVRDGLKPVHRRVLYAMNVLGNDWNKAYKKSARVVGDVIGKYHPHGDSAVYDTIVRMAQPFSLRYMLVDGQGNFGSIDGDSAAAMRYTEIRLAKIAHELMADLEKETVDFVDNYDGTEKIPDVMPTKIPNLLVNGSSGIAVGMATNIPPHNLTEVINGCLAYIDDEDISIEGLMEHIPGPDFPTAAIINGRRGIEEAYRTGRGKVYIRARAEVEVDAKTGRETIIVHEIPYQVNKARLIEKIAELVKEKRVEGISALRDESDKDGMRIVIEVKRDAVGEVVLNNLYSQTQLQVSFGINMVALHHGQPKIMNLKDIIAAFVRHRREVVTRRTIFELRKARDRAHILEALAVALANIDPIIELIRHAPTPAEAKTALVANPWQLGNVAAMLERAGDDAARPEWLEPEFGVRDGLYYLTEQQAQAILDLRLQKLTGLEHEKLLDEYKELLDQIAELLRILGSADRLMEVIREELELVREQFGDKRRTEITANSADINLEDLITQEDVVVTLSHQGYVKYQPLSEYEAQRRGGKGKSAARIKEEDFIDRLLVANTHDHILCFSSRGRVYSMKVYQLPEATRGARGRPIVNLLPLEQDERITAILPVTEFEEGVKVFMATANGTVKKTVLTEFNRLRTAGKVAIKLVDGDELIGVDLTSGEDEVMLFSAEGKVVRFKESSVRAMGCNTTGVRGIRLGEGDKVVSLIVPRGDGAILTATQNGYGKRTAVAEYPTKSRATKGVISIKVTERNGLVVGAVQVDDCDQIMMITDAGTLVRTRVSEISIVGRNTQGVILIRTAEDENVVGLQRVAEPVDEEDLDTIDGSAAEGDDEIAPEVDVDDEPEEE

Compound `CC(C)Oc1cc(C(=O)O)ccc1NC(=O)c1ccc(NC(=O)c2ccc(N)cc2)c(OC(C)C)c1O` [Compound 10, cystobactamid 507] has an MIC [1] of over 32 µg/mL, an MIC [2] of over 32 µg/mL and an MIC (E. coli CCARM 1356) of over 32 µg/mL. It also gave an MIC (E. coli KCTC 1682; [9]) of over 32 µg/mL, an MIC (E. coli KCTC 1682; KCTC1682, Table 7, read-out: MIC, antibacterial activity on E. coli KCTC 1682) of over 32 µg/mL and an MIC [3] of over 32 µg/mL. The MIC [4] was over 32 µg/mL, the MIC (MRSA CCARM 3167) was over 32 µg/mL and the MIC (MRSA CCARM 3506) was over 32 µg/mL. For the same compound, the MIC [5] was over 32 µg/mL, the MIC (QRSA CCARM 3505) was over 32 µg/mL and the MIC (QRSA CCARM 3519) was over 32 µg/mL. For the same compound, the MIC [6] was over 32 µg/mL, the pIC50 (E. coli DNA gyrase) was under 3.52 and the antibacterial activity ([7]; in words) was “weak antibacterial activity”. For the same compound, the “MICs against Gram-negative and Gram-positive bacteria” value ([7]; reported range) was 4 to 65 µg/mL and the pIC50 (DNA gyrase) was 4.69.

`CO[C@@H](C(N)=O)[C@H](NC(=O)c1ccc(NC(=O)c2ccc([N+](=O)[O-])cc2)cc1)C(=O)Nc1ccc(C(=O)Nc2ccc(C(=O)Nc3ccc(C(=O)O)c(O)c3OC(C)C)c(O)c2OC(C)C)cc1` [Compound 12, coralmycin A, reference compound] gave an MIC [1] of 0.015 µg/mL (≈ 0.016 µM), an MIC [2] of 0.125 µg/mL (≈ 0.134 µM) and an MIC (E. coli CCARM 1356) of 0.125 µg/mL (≈ 0.134 µM). The MIC (E. coli KCTC 1682; [9]) was 0.125 µg/mL (≈ 0.134 µM), the MIC (E. coli KCTC 1682; KCTC1682, 24 h, Table 7, read-out: MIC, antibacterial activity on E. coli KCTC 1682) was 0.25 µg/mL (≈ 0.267 µM) and the MIC [3] was 0.03 µg/mL (≈ 0.0321 µM). It also gave an MIC [4] of 2 µg/mL (≈ 2.14 µM), an MIC (MRSA CCARM 3167) of 0.015 µg/mL (≈ 0.016 µM) and an MIC (MRSA CCARM 3506) of 0.015 µg/mL (≈ 0.016 µM). It also gave an MIC [5] of 4 µg/mL (≈ 4.27 µM), an MIC (QRSA CCARM 3505) of 0.125 µg/mL (≈ 0.134 µM) and an MIC (QRSA CCARM 3519) of 0.25 µg/mL (≈ 0.267 µM). For the same compound, the MIC [6] was 0.25 µg/mL (≈ 0.267 µM), the pIC50 (E. coli DNA gyrase) was 7.10 and the “antibacterial activity relative to 11 (times higher)” value [8] was 10 times.

For `CO[C@@H](C(N)=O)[C@H](NC(=O)c1ccc(NC(=O)c2ccc([N+](=O)[O-])cc2)cc1)C(=O)Nc1ccc(C(=O)Nc2ccc(C(=O)Nc3ccc(C(=O)O)cc3)c(O)c2OC(C)C)cc1` [cystobactamid 861-2], the “antibacterial activity against Gram-negative pathogens relative to 12 (times higher)” value (Gram-negative pathogens) is listed as 4–10 times.

— publication PMC6479757, “Coralmycin Derivatives with Potent Anti-Gram Negative Activity Produced by the Myxobacteria Corallococcus coralloides M23” (Molecules, 2019)
